# In US6713506B2, “Tea polyphenol esters and analogs thereof for cancer prevention and treatment” (University of South Florida, priority 2000, dated 2004):
# “Also recorded” adds a separate entry of the source.
# What was measured:
# [1] = target: T1, proteasome chymotrypsin-like activity in living Jurkat cells (Homo sapiens, UniProt P28074); assay: Proteasome chymotrypsin-like activity in living Jurkat T cells; type: cell-based
# T1 construct: endogenous in cells; host or cells: Jurkat T cells (whole cell extract or intact cells)
# Description: FIG. 10. Inhibition of the chymotrypsin-like activity by tannic acid in intact Jurkat T cells. Intact Jurkat T cells (1×10^5 cells/ml/well) are cultured in 24-well plates. These cells are first incubated for 12 h with various concentrations of tannic acid as indicated, followed by an additional 2 h-incubation with a fluorogenic peptide substrate, Suc-Leu-Leu-Val-Tyr-AMC for the chymotrypsin-like activity. Then, cell medium (200 μl per sample) is collected and used for measurement of free AMCs.
# Inhibition of the proteasome activity in living cells by tea polyphenols—To measure inhibition of the chymotrypsin-like activity in living tumor cells, Jurkat T (1×10^5 cells/ml/well), MCF7 or PC-3 cells (1×10^4 cells/ml/well) are cultured in 24-well plates. These cells are first incubated for 12 h with various concentrations of EGCG, EGC, β-lactone or LLnL, followed by an additional 2 h-incubation with fluorogenic peptide substrates, Suc-Leu-Leu-Val-Tyr-AMC for the chymotrypsin-like activity and Z-Gly-Gly-Arg-AMC for the trypsin-like activity. After that, cell medium (200 μl per sample) is collected and used for measurement of free AMCs.
# [2] = target: T2, proteasomal chymotrypsin-like activity in Jurkat T cell extract (Homo sapiens, UniProt P28074); assay: Proteasome chymotrypsin-like activity in Jurkat T cell free extract; type: biochemical
# T2 construct: endogenous in cells; host or cells: Jurkat T cells (whole cell extract or intact cells)
# Description: FIG. 9. Inhibition of the proteasome activity by tannic acid using a cell free extract. A). The whole cell extract (6.0 μg) from Jurkat T cells is incubated for 90 min at 37° C. with 20 μM of a fluorogenic peptide substrate, Suc-Leu-Leu-Val-Tyr-AMC for the chymotrypsin-like activity, Z-Leu-Leu-Glu-AMC for peptidyl-glutamyl peptide-hydrolyzing (PGPH) activity, and Z-Gly-Gly-Arg-AMC for the trypsin-like activity, in 100 μl of the assay buffer with (filled bars) or without (empty bars) 1 μg/ml of tannic acid. The hydrolyzed AMCs are quantified as described in FIG. 2. B). […] Experiment is performed as described in FIG. 9A.
# Inhibition of the proteasome activity with cell free extracts by tea polyphenols—The whole cell extract (3.5 μg) from Jurkat T cells is incubated for 90 min at 37° C. with 20 μM of a fluorogenic peptide substrate, Suc-Leu-Leu-Val-Tyr-AMC (for the chymotrypsin-like activity), Z-Leu-Leu-Glu-AMC [peptidyl-glutamyl peptide-hydrolyzing (PGPH) activity; Calbiochem], and Z-Gly-Gly-Arg-AMC (for the trypsin-like activity; Bachem), in 100 μl of the assay buffer with or without 10 μM EGCG or EGC. The hydrolyzed AMCs are quantified as described above.
# [3] = target: T3, purified calpain I (Homo sapiens, UniProt P07384); assay: Calpain I activity assay; type: biochemical; conditions: for inhibition of purified calpain I activity (in words): 10 μM, FIG. 16A
# T3 construct: 3 μg purified calpain I (Human Erythrocytes, Calbiochem) is incubated; purchased Calbiochem; host or cells: human erythrocytes (tissue-purified)
# T3 sequence (P07384 1-714): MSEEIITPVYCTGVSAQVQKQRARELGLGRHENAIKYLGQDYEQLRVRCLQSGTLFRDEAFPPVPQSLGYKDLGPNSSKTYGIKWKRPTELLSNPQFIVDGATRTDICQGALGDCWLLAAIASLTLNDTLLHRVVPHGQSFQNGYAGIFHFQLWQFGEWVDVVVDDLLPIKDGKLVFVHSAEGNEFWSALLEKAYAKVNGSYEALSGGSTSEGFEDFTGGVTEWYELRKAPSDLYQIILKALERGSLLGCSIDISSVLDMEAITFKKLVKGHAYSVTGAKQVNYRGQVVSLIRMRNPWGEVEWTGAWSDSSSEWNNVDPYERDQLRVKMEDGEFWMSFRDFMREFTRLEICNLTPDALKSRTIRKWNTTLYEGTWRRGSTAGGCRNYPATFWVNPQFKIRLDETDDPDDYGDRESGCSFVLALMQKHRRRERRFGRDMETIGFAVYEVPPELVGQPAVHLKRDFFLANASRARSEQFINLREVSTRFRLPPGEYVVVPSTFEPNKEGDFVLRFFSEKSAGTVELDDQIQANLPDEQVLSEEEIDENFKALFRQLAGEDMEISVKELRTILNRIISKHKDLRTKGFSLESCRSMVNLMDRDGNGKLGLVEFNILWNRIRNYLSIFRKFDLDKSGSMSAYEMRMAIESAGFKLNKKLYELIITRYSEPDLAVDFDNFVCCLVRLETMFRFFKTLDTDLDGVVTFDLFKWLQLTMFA
# T3 sequence (P04632 1-268 partner): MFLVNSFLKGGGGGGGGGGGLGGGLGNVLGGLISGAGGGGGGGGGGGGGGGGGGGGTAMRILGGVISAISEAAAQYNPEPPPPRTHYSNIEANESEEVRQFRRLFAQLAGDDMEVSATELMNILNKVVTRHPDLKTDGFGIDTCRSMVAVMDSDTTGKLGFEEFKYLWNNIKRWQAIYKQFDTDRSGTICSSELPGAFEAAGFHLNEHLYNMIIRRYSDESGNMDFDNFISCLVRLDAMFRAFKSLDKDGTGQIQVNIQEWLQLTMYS
# Description: FIG. 8. […] A). […] Initially, 0.5 μg of purified 20S proteasome is incubated with 20 μM of a fluorogenic peptide substrate, Suc-Leu-Leu-Val-Tyr-AMC, for 30 min at 37° C. in 100 μl of assay buffer (20 mM Tris-HCl, pH 8.0) with various concentrations of tannic acid. After incubation, the reaction mixture is diluted to 200 μl with the assay buffer, followed by measurement of the hydrolyzed 7-amido-4-methyl-coumarin (AMC) groups using a fluorometer with an excitation filter of 380 nm and an emission filter of 460 nm. B). […] Tannic acid (0.3 μg/ml) and Glucose (180 μg/ml) are used in the proteasome activity assay as described above. C). […] Purified calpain I (3 μg) protein is incubated with 40 μM of a fluorogenic peptide substrate, Suc-Leu-Tyr-AMC, for 30 min at 37° C. in 100 μl of assay buffer (50 mM Tris-HCl, pH 7.5, containing 50 mM NaCl, 1 mM EDTA, 1 mM EGTA, 5 mM β-Mercaptoethanol, 5 mM CaCl2, and 0.1% CHAPS) in the absence (control) or presence of 5 μg/ml of tannic acid or 0.18 μg/ml of calpeptin (calpain inhibitor).
smiles,measurement,setting,value
"Oc1cc(O)c2c(c1)O[C@H](c1cc(O)c(O)c(O)c1)[C@H](O)C2 [EGC, (−)-epigallocatechin]",inhibition of chymotrypsin-like activity in living/intact Jurkat cells (in words),[1],much less effect
same,inhibition of proteasomal chymotrypsin-like activity in Jurkat T cell extract (in words),[2],little effect
same,inhibition of purified calpain I activity (in words),[3],Neither EGCG nor EGC at 10 μM inhibits
"O=C(O[C@@H]1Cc2c(O)cc(O)cc2O[C@@H]1c1cc(O)c(O)c(O)c1)c1cc(O)c(O)c(O)c1 [EGCG, (−)-epigallocatechin-3-gallate]",inhibition of chymotrypsin-like activity in living/intact Jurkat cells (in words),[1],inhibitable
same,inhibition of chymotrypsin-like activity,"[1]; 10 μM, living Jurkat cells",24%
same,IC50,[1]; 12 h preincubation,18 µM
same,inhibition of proteasomal chymotrypsin-like activity in Jurkat T cell extract (in words),[2],most potent proteasome inhibitor among all the tested polyphenols
same,inhibition of proteasomal chymotrypsin-like activity,"[2]; 10 μM, Jurkat T cell extract",~70%
same,inhibition of purified calpain I activity (in words),[3],Neither EGCG nor EGC at 10 μM inhibits
same,inhibition of purified calpain activity (in words),"[3]; FIG. 3B: EGCG 10 μM, calpeptin 1 μM","but not EGCG, is able to inhibit"
O=C(OC[C@H]1O[C@@H](OC(=O)c2cc(O)c(O)c(OC(=O)c3cc(O)c(O)c(O)c3)c2)[C@H](OC(=O)c2cc(O)c(O)c(OC(=O)c3cc(O)c(O)c(O)c3)c2)[C@@H](OC(=O)c2cc(O)c(O)c(OC(=O)c3cc(O)c(O)c(O)c3)c2)[C@@H]1OC(=O)c1cc(O)c(O)c(OC(=O)c2cc(O)c(O)c(O)c2)c1)c1cc(O)c(O)c(OC(=O)c2cc(O)c(O)c(O)c2)c1 [tannic acid],inhibition of chymotrypsin-like activity in living/intact Jurkat cells (in words),[1],inhibition
same,inhibition of proteasomal chymotrypsin-like activity in Jurkat T cell extract (in words),[2],Dose-dependent inhibition; also recorded: inhibited by tannic acid in a dose-dependent manner
same,inhibition of calpain activity (in words),[3]; tannic acid 5 μg/ml,does not inhibit
